Data taken from patent US20220289794A1, “SYNTHETIC ANTIMICROBIAL PEPTIDES” (priority 2019, published 2022).

Assays:
B. subtilis (ATCC-6633) = experiment: Broad-spectrum activity against Gram-Positive bacteria (MIC); assay type: cell-based; set-up: unit not given here
E. coli (ATCC BAA-2452) = experiment: Broad-spectrum activity against Gram-Negative bacteria (MIC); assay type: cell-based; settings: Table 16, Gram-negative panel
B. cereus (ATCC-13061) = experiment: Broad-spectrum activity against Gram-Positive bacteria (MIC); assay type: cell-based; set-up: unit not given here
[1] = tested on: A. baumannii (ATCC BAA-1605); experiment: Broad-spectrum activity against Gram-Negative bacteria (MIC); assay type: cell-based; settings: Table 16, Gram-negative panel
[2] = tested on: P. aeruginosa (ATCC 10145); experiment: as above; assay type: cell-based; settings: Table 16, Gram-negative panel
[3] = tested on: P. aeruginosa (ATCC BAA-1744); experiment: as above; assay type: cell-based; settings: Table 16, Gram-negative panel
[4] = tested on: Methicillin-resistant Staphylococcus aureus MRSA (ATCC BAA-1556); settings: MRSA ATCC BAA-1556
S. aureus ATCC 29213 = settings: S. aureus ATCC 29213
[5] = tested on: Pseudomonas aeruginosa (ATCC 27883); settings: P. aeruginosa ATCC 27883
[6] = tested on: Escherichia coli (ATCC 25922); settings: E. coli ATCC 25922
[7] = tested on: Klebsiella pneumoniae (ATCC BAA-1705); settings: Table 16, Gram-negative panel
[8] = tested on: Enterococcus faecium ATCC 27270; settings: E. faecium ATCC 27270
[9] = tested on: Enterococcus faecium ATCC 700221; settings: E. faecium ATCC 700221
[10] = tested on: Klebsiella pneumoniae ATCC 13883; settings: Table 16, Gram-negative panel
[11] = tested on: Enterococcus faecalis ATCC 29212; settings: E. faecalis ATCC 29212
[12] = tested on: Enterococcus faecalis ATCC 51575; settings: E. faecalis ATCC 51575
[13] = tested on: Streptococcus pneumoniae ATCC 49619; settings: S. pneumoniae ATCC 49619
[14] = tested on: Streptococcus pneumoniae ATCC 51938; settings: S. pneumoniae ATCC 51938

Substance	Broad-spectrum activity B. subtilis (ATCC-6633) (B. subtilis (ATCC-6633))	MIC E. coli (ATCC BAA-2452) (E. coli (ATCC BAA-2452))	Broad-spectrum activity B. cereus (ATCC-13061) (B. cereus (ATCC-13061))	MIC A. baumannii (ATCC BAA-1605) [1]	MIC P. aeruginosa (ATCC 10145) [2]	MIC P. aeruginosa (ATCC BAA-1744) [3]	MIC MRSA ATCC BAA-1556 [4]	MIC S. aureus ATCC 29213 (S. aureus ATCC 29213)	MIC P. aeruginosa ATCC 27883 [5]	MIC E. coli ATCC 25922 [6]	MIC K. pneumonia (ATCC BAA-1705) [7]	Broad-spectrum activity E. faecium (ATCC 27270) [8]	Broad-spectrum activity E. faecium (ATCC 700221) [9]	MIC K. pneumonia (ATCC 13883) [10]	Broad-spectrum activity E. faecalis (ATCC 29212) [11]	Broad-spectrum activity E. faecalis (ATCC 51575) [12]	Broad-spectrum activity S. pneumoniae (ATCC 49619) [13]	Broad-spectrum activity S. pneumoniae (ATCC 51938) [14]
c[arg-arg-Arg-Arg-naI-Trp-naI] [IFX-136]	1.5	12.5 µg/mL	3.1	12.5 µg/mL	50 µg/mL	25 µg/mL	3.1 µg/mL	1.5 µg/mL	32 µg/mL	16 µg/mL	25 µg/mL	3.1	3.1	50 µg/mL	6.2	6.2	25	12.5
c[arg-arg-Arg-Arg-naI-trp-naI] [IFX-138]	3.1	12.5 µg/mL	6.2	25 µg/mL	50 µg/mL	50 µg/mL	3.1 µg/mL	1.5 µg/mL	32 µg/mL	16 µg/mL	50 µg/mL	3.1	6.2	50 µg/mL	6.2	6.2	50	25
c[arg-arg-arg-arg-Dip-Trp-Dip] [IFX-099]	1.5	25 µg/mL	3.1	12.5 µg/mL	25 µg/mL	25 µg/mL	1.5 µg/mL	1.5 µg/mL	12.5 µg/mL	6.2 µg/mL	25 µg/mL	3.1	6.2	50 µg/mL	6.2	12.5	25	12.5
c[arg-arg-arg-arg-NaI-trp-NaI] [IFX-141]	1.5	25 µg/mL	3.1	12.5 µg/mL	25 µg/mL	25 µg/mL	6.2 µg/mL	3.1 µg/mL	32 µg/mL	32 µg/mL	> 50 µg/mL	6.2	6.2	50 µg/mL	6.2	12.5	50	12.5
